# Reference: patent US6652865B2, “Method and formulation for decreasing statin metabolism” (Gattefosse Holding, priority 2001, dated 2003)
# Test system: human intestinal microsomes
# Assay: Reduction in the intestinal barrier effect: simvastatin remaining after incubation with human intestinal microsomes
# Conditions: 12 μmol, 1 mg/ml microsomes, 37° C.
# Protocol: The test is carried out in vitro using human intestinal microsomes containing:
# 0.09 nmol/mg of cytochromes P450,
# 0.77 nmol/min/mg of cytochromes P450 3 A 4.
# 1 mg/ml of microsomes is then placed in contact:
# with a regenerating system having the following composition:
# followed by equilibration at 37° C. for 3 minutes.
# 100 μl aliquots are mixed with a solution of 400 μl of a 50/50 mixture of ice and acetonitrile at 0, 15, 30, 60, 120 and 180 minutes. Testosterone is tested in parallel as control component.
# The conditions for carrying out the HPLC are as follows:
# The mass spectrometer used is known under the reference PE SCIEX 150.
structure (smiles),measurement,setting,value
"C[C@]12CC[C@H]3[C@@H](CCC4=CC(=O)CC[C@@]43C)[C@@H]1CC[C@@H]2O [TESTOSTERONE, Testosterone]",PERCENTAGE REMAINING,time 0 min,100%
same,PERCENTAGE REMAINING,time 15 min,completely disappeared
same,PERCENTAGE REMAINING,time 180 min,0%
